System: 282377-053-R-J1-PDC complex spheroid viability
Assay: Anticancer human tumor 282377-053-R-J1-PDC patient-derived colon adenocarcinoma cell line growth inhibition [POLQ]
Details: for IC50: curve of first compound; for viability, T/C: stronger effect = lower value
Outline: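 Complex spheroid viability model combining PDC tumour cells with endothelial (HUVEC) and MSC stromal cells. Novobiocin, ART-558 or RP6685 were tested singly and in combination with standard and investigational anticancer drugs. Each was titrated in half-log steps from near clinical Cmax, or from 10 microM where Cmax was unknown.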

[1] = second compound 0.0316 µM, first compound 0.0316 µM
[2] = second compound 0.0316 µM, first compound 0.1 µM
[3] = second compound 0.0316 µM, first compound 0.316 µM
[4] = second compound 0.0316 µM, first compound 1 µM
[5] = second compound 0.0316 µM, first compound 3.16 µM
[6] = second compound 0.0316 µM, first compound 10 µM
[7] = second compound 0.1 µM, first compound 0.0316 µM
[8] = second compound 0.1 µM, first compound 0.1 µM
[9] = second compound 0.1 µM, first compound 0.316 µM
[10] = second compound 0.1 µM, first compound 1 µM
[11] = second compound 0.1 µM, first compound 3.16 µM
[12] = second compound 0.1 µM, first compound 10 µM
[13] = second compound 0.316 µM, first compound 0.0316 µM
[14] = second compound 0.316 µM, first compound 0.1 µM
[15] = second compound 0.316 µM, first compound 0.316 µM
[16] = second compound 0.316 µM, first compound 1 µM
[17] = second compound 0.316 µM, first compound 3.16 µM
[18] = second compound 0.316 µM, first compound 10 µM
[19] = second compound 1 µM, first compound 0.0316 µM
[20] = second compound 1 µM, first compound 0.1 µM
[21] = second compound 1 µM, first compound 0.316 µM
[22] = second compound 1 µM, first compound 1 µM
[23] = second compound 1 µM, first compound 3.16 µM
[24] = second compound 1 µM, first compound 10 µM
[25] = second compound 3.16 µM, first compound 0.0316 µM
[26] = second compound 3.16 µM, first compound 0.1 µM
[27] = second compound 3.16 µM, first compound 0.316 µM
[28] = second compound 3.16 µM, first compound 1 µM
[29] = second compound 3.16 µM, first compound 3.16 µM
[30] = second compound 3.16 µM, first compound 10 µM
[31] = second compound 10 µM, first compound 0.0316 µM
[32] = second compound 10 µM, first compound 0.1 µM
[33] = second compound 10 µM, first compound 0.316 µM
[34] = second compound 10 µM, first compound 1 µM
[35] = second compound 10 µM, first compound 3.16 µM
[36] = second compound 10 µM, first compound 10 µM
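Further: spheroids exposed to compounds for seven days.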
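Wherever viability, T/C is given: 100% = DMSO vehicle control viability.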

CNCc1ccc(-c2[nH]c3cc(F)cc4c3c2CCNC4=O)cc1 + Nc1ccc(C#CCN(C(=O)Cc2ncc(C(F)(F)F)cc2C(F)(F)F)c2ccc(F)cc2)nn1
IC50 (second compound 0.0316 µM): > 10 µM | IC50 (second compound 0.1 µM): > 10 µM | IC50 (second compound 0.316 µM): > 10 µM | IC50 (second compound 1 µM): > 10 µM | IC50 (second compound 3.16 µM): > 10 µM | IC50 (second compound 10 µM): > 10 µM | viability, T/C [1]: 105% | viability, T/C [2]: 88.6% | viability, T/C [3]: 90% | viability, T/C [4]: 104% | viability, T/C [5]: 108% | viability, T/C [6]: 112% | viability, T/C [7]: 119% | viability, T/C [8]: 117% | viability, T/C [9]: 104% | viability, T/C [10]: 94.6% | viability, T/C [11]: 97.4% | viability, T/C [12]: 112% | viability, T/C [13]: 95.7% | viability, T/C [14]: 86.2% | viability, T/C [15]: 89.8% | viability, T/C [16]: 108% | viability, T/C [17]: 92% | viability, T/C [18]: 108% | viability, T/C [19]: 95% | viability, T/C [20]: 103% | viability, T/C [21]: 100% | viability, T/C [22]: 90.8% | viability, T/C [23]: 115% | viability, T/C [24]: 101% | viability, T/C [25]: 109% | viability, T/C [26]: 98.3% | viability, T/C [27]: 127% | viability, T/C [28]: 92.4% | viability, T/C [29]: 118% | viability, T/C [30]: 139% | viability, T/C [31]: 113% | viability, T/C [32]: 105% | viability, T/C [33]: 126% | viability, T/C [34]: 121% | viability, T/C [35]: 113% | viability, T/C [36]: 145%

Nc1ccn(C2OC(CO)C(O)C2(F)F)c(=O)n1 (stereo unspecified) + Nc1ccc(C#CCN(C(=O)Cc2ncc(C(F)(F)F)cc2C(F)(F)F)c2ccc(F)cc2)nn1
IC50 (second compound 0.0316 µM): > 10 µM | IC50 (second compound 0.1 µM): > 10 µM | IC50 (second compound 0.316 µM): > 10 µM | IC50 (second compound 1 µM): > 10 µM | IC50 (second compound 3.16 µM): > 10 µM | IC50 (second compound 10 µM): > 10 µM | viability, T/C [1]: 118% | viability, T/C [2]: 128% | viability, T/C [3]: 122% | viability, T/C [4]: 83.3% | viability, T/C [5]: 84.4% | viability, T/C [6]: 68.4% | viability, T/C [7]: 101% | viability, T/C [8]: 112% | viability, T/C [9]: 109% | viability, T/C [10]: 101% | viability, T/C [11]: 80.4% | viability, T/C [12]: 65.4% | viability, T/C [13]: 115% | viability, T/C [14]: 98.8% | viability, T/C [15]: 107% | viability, T/C [16]: 95.7% | viability, T/C [17]: 83% | viability, T/C [18]: 56.2% | viability, T/C [19]: 104% | viability, T/C [20]: 93.8% | viability, T/C [21]: 108% | viability, T/C [22]: 92.6% | viability, T/C [23]: 81% | viability, T/C [24]: 67.7% | viability, T/C [25]: 115% | viability, T/C [26]: 116% | viability, T/C [27]: 117% | viability, T/C [28]: 107% | viability, T/C [29]: 108% | viability, T/C [30]: 78.8% | viability, T/C [31]: 124% | viability, T/C [32]: 120% | viability, T/C [33]: 127% | viability, T/C [34]: 124% | viability, T/C [35]: 114% | viability, T/C [36]: 90.5%

O=C(c1cc(Cc2n[nH]c(=O)c3ccccc23)ccc1F)N1CCN(C(=O)C2CC2)CC1 + Nc1ccc(C#CCN(C(=O)Cc2ncc(C(F)(F)F)cc2C(F)(F)F)c2ccc(F)cc2)nn1
IC50 (second compound 0.0316 µM): > 10 µM | IC50 (second compound 0.1 µM): > 10 µM | IC50 (second compound 0.316 µM): > 10 µM | IC50 (second compound 1 µM): > 10 µM | IC50 (second compound 3.16 µM): > 10 µM | IC50 (second compound 10 µM): > 10 µM | viability, T/C [1]: 114% | viability, T/C [2]: 104% | viability, T/C [3]: 101% | viability, T/C [4]: 105% | viability, T/C [5]: 121% | viability, T/C [6]: 105% | viability, T/C [7]: 112% | viability, T/C [8]: 123% | viability, T/C [9]: 98.6% | viability, T/C [10]: 102% | viability, T/C [11]: 117% | viability, T/C [12]: 118% | viability, T/C [13]: 113% | viability, T/C [14]: 97.1% | viability, T/C [15]: 104% | viability, T/C [16]: 95.2% | viability, T/C [17]: 109% | viability, T/C [18]: 94.8% | viability, T/C [19]: 119% | viability, T/C [20]: 103% | viability, T/C [21]: 105% | viability, T/C [22]: 110% | viability, T/C [23]: 112% | viability, T/C [24]: 109% | viability, T/C [25]: 111% | viability, T/C [26]: 109% | viability, T/C [27]: 111% | viability, T/C [28]: 106% | viability, T/C [29]: 118% | viability, T/C [30]: 115% | viability, T/C [31]: 122% | viability, T/C [32]: 106% | viability, T/C [33]: 130% | viability, T/C [34]: 121% | viability, T/C [35]: 129% | viability, T/C [36]: 127%

Source: PubChem BioAssay AID1963852 (Molecular Pharmacology Branch, DTP, NCI, 2024)
